From PubChem BioAssay (NCI)
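1) Cells in 96-well plates. 2) Compound, 48 h, 5 concentrations. 3) Linear interpolation between surrounding doses. 4) Unreached endpoint = highest concentration. At the GI50, growth is halved. At the TGI there is no net growth.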 *1 amine or outer side, *2 acyl side, *3 side chain or, on linkers, in order; H or OH if unused. Where a SMILES comes first, the peptide text is derived from it. [ ]: non-standard residue; d: D form. The star is where a group is joined. X11 = C/C=C/CC(C)C(O)[C@H](N[*:1])C(=O)[*:2]; Leu(ol) = CC(C)C[C@H](N)CO; Iva = CC[C@](C)(N)C(=O)O; Octanoyl = CCCCCCCC(=O)*; Aib = CC(C)(N)C(=O)O

Columns and labels:
Experiment in all cases: NCI-60 cell line screen, 48 h
[1] = system: 786-0 renal
[2] = system: A498 renal
[3] = system: A549 NSCLC
[4] = system: ACHN renal
[5] = system: BT-549 breast
[6] = system: CAKI-1 renal
[7] = system: CCRF-CEM leukemia
[8] = system: COLO 205 colon
[9] = system: DU-145 prostate
[10] = system: EKVX NSCLC
[11] = system: HCC-2998 colon
[12] = system: HCT-116 colon
[13] = system: HCT-15 colon
[14] = system: HL-60(TB) leukemia
[15] = system: HOP-62 NSCLC
[16] = system: HOP-92 NSCLC
[17] = system: HT29 colon
[18] = system: IGROV1 ovarian
[19] = system: K-562 leukemia
[20] = system: KM12 colon
[21] = system: LOX IMVI melanoma
[22] = system: M14 melanoma
[23] = system: MALME-3M melanoma
[24] = system: MCF7 breast
[25] = system: MDA-MB-231 breast
[26] = system: MDA-MB-435
[27] = system: MOLT-4 leukemia
[28] = system: NCI-H226 lung
[29] = system: NCI-H23 lung
[30] = system: NCI-H460 lung
[31] = system: NCI-H522 lung
[32] = system: NCI/ADR-RES ovarian
[33] = system: OVCAR-3 ovarian
[34] = system: OVCAR-4 ovarian
[35] = system: OVCAR-5 ovarian
[36] = system: OVCAR-8 ovarian
[37] = system: PC-3 prostate
[38] = system: RPMI-8226 leukemia
[39] = system: RXF 393 renal
[40] = system: SF-268 CNS
[41] = system: SF-295 CNS
[42] = system: SF-539 CNS
[43] = system: SK-MEL-2 melanoma
[44] = system: SK-MEL-28 melanoma
[45] = system: SK-MEL-5 melanoma
[46] = system: SK-OV-3 ovarian
[47] = system: SN12C renal
[48] = system: SNB-19 CNS
[49] = system: SNB-75 CNS
[50] = system: SR leukemia
[51] = system: SW-620 colon
[52] = system: T-47D breast
[53] = system: TK-10 renal
[54] = system: U251 CNS
[55] = system: UACC-257 melanoma
[56] = system: UACC-62 melanoma
[57] = system: UO-31 renal
[58] = system: HS 578T breast

With `COc1ccc([C@@H]2C(=O)N(c3cc(OC)c(OC)c(OC)c3)[C@H]2c2ccc(OC)c(O)c2)cc1` the GI50 [1] was 0.0762 µM, the TGI [1] was > 100 µM and the GI50 [2] was 8.56 µM. For the same molecule, the TGI [2] was > 100 µM, the GI50 [3] was 0.0438 µM and the TGI [3] was > 100 µM. The GI50 [4] was 0.0847 µM, the TGI [4] was 32.4 µM and the GI50 [5] was 0.0555 µM. For the same molecule, the TGI [5] was 3.2 µM, the GI50 [6] was 0.0681 µM and the TGI [6] was > 100 µM. For the same molecule, the GI50 [7] was 0.0356 µM, the TGI [7] was > 100 µM and the GI50 [8] was 0.0546 µM. The TGI [8] was 0.205 µM, the GI50 [9] was 0.0596 µM and the TGI [9] was > 100 µM. The GI50 [10] was 0.0498 µM, the TGI [10] was > 100 µM and the GI50 [11] was 0.259 µM. The TGI [11] was 18.5 µM, the GI50 [12] was 0.0353 µM and the TGI [12] was > 100 µM. For the same molecule, the GI50 [13] was 0.0348 µM, the TGI [13] was > 100 µM and the GI50 [14] was 0.0214 µM. The TGI [14] was 0.0527 µM, the GI50 [15] was 0.0411 µM and the TGI [15] was > 100 µM. For the same molecule, the GI50 [16] was 6.02 µM, the TGI [16] was 48.8 µM and the GI50 [17] was 0.0431 µM. The TGI [17] was 11.5 µM, the GI50 [18] was 0.063 µM and the TGI [18] was > 100 µM. For the same molecule, the GI50 [19] was 0.0306 µM, the TGI [19] was 30.5 µM and the GI50 [20] was 0.0459 µM. For the same molecule, the TGI [20] was > 100 µM, the GI50 [21] was 0.0376 µM and the TGI [21] was > 100 µM. For the same molecule, the GI50 [22] was 0.0696 µM, the TGI [22] was 48.1 µM and the GI50 [23] was 0.061 µM. The TGI [23] was 40.8 µM, the GI50 [24] was 0.0381 µM and the TGI [24] was > 100 µM. The GI50 [25] was 0.0367 µM, the TGI [25] was > 100 µM and the GI50 [26] was 0.0301 µM. The TGI [26] was > 100 µM, the GI50 [27] was 0.0382 µM and the TGI [27] was 31.6 µM. For the same molecule, the GI50 [28] was 0.0362 µM, the TGI [28] was 37.2 µM and the GI50 [29] was 0.047 µM. For the same molecule, the TGI [29] was 44.1 µM, the GI50 [30] was 0.036 µM and the TGI [30] was > 100 µM. The GI50 [31] was 0.0209 µM, the TGI [31] was 0.058 µM and the GI50 [32] was 0.024 µM. The TGI [32] was 0.0598 µM, the GI50 [33] was 0.0408 µM and the TGI [33] was 28.9 µM. The GI50 [34] was 3.98 µM, the TGI [34] was > 100 µM and the GI50 [35] was 0.0498 µM. For the same molecule, the TGI [35] was > 100 µM, the GI50 [36] was 0.0332 µM and the TGI [36] was 27.8 µM. For the same molecule, the GI50 [37] was 0.2 µM, the TGI [37] was > 100 µM and the GI50 [38] was 0.0492 µM. The TGI [38] was 12 µM, the GI50 [39] was 0.0417 µM and the TGI [39] was 51.1 µM. The GI50 [40] was 0.3 µM, the TGI [40] was > 100 µM and the GI50 [41] was 0.0324 µM. The TGI [41] was 18.9 µM, the GI50 [42] was 0.0221 µM and the TGI [42] was 0.0567 µM. For the same molecule, the GI50 [43] was 0.0483 µM, the TGI [43] was > 100 µM and the GI50 [44] was 13.4 µM. The TGI [44] was > 100 µM, the GI50 [45] was 0.0354 µM and the TGI [45] was 0.161 µM. For the same molecule, the GI50 [46] was 0.0325 µM, the TGI [46] was 65.2 µM and the GI50 [47] was 0.0413 µM. For the same molecule, the TGI [47] was > 100 µM, the GI50 [48] was 0.284 µM and the TGI [48] was > 100 µM. It also gave a GI50 [49] of 0.0444 µM, a TGI [49] of 51.7 µM and a GI50 [50] of 0.0316 µM. For the same molecule, the TGI [50] was 25.7 µM, the GI50 [51] was 0.0428 µM and the TGI [51] was > 100 µM. For the same molecule, the GI50 [52] was 24.3 µM, the TGI [52] was > 100 µM and the GI50 [53] was 15.1 µM. The TGI [53] was > 100 µM, the GI50 [54] was 0.034 µM and the TGI [54] was > 100 µM. For the same molecule, the GI50 [55] was 13 µM, the TGI [55] was > 100 µM and the GI50 [56] was 0.0825 µM. For the same molecule, the TGI [56] was 42.3 µM, the GI50 [57] was 0.134 µM and the TGI [57] was 23.7 µM.
With `C/C=C/CC(C)C(O)[C@H](NC(=O)[C@@H]1CCCN1C(=O)C(C)(C)NC(=O)CCCCCCC)C(=O)N[C@@](C)(CC)C(=O)N[C@@H](CCC(N)=O)C(=O)N[C@H](CCC(N)=O)C(=O)NC(C)(C)C(=O)NC(C)(C)C(=O)N[C@@H](CCC(N)=O)C(=O)N[C@H](CC(C)C)C(=O)N[C@H](CO)CC(C)C` (stereo partly drawn) (Octanoyl-[Aib]P[X11][Iva]Q[dQ][Aib][Aib]Q[dL][Leu(ol)]) the GI50 [1] was 2.71 µM, the TGI [1] was 7.6 µM and the GI50 [2] was 2.74 µM. It also gave a TGI [2] of 7.25 µM, a GI50 [3] of 5.12 µM and a TGI [3] of 21 µM. It also gave a GI50 [4] of 7.45 µM, a TGI [4] of 19.9 µM and a GI50 [5] of 2.01 µM. The TGI [5] was 3.63 µM, the GI50 [6] was 4.89 µM and the TGI [6] was 18.4 µM. For the same molecule, the GI50 [7] was 2.35 µM, the TGI [7] was 5.63 µM and the GI50 [8] was 2.03 µM. The TGI [8] was 4.04 µM, the GI50 [9] was 2.15 µM and the TGI [9] was 4.61 µM. For the same molecule, the GI50 [10] was 2.83 µM, the TGI [10] was 9.74 µM and the GI50 [11] was 3 µM. For the same molecule, the TGI [11] was 10.1 µM, the GI50 [12] was 4.11 µM and the TGI [12] was 16 µM. The GI50 [13] was 5.2 µM, the TGI [13] was 18.2 µM and the GI50 [14] was 1.74 µM. The TGI [14] was 3.86 µM, the GI50 [15] was 3.16 µM and the TGI [15] was 11.2 µM. It also gave a GI50 [58] of 2.45 µM, a TGI [58] of 6.8 µM and a GI50 [17] of 7.35 µM. It also gave a TGI [17] of 20.6 µM, a GI50 [18] of 6.83 µM and a TGI [18] of 20.3 µM. The GI50 [19] was 1.85 µM, the TGI [19] was 3.52 µM and the GI50 [20] was 2.16 µM. The TGI [20] was 4.77 µM, the GI50 [21] was 3.56 µM and the TGI [21] was 13.6 µM. For the same molecule, the GI50 [22] was 2.66 µM, the TGI [22] was 7.2 µM and the GI50 [23] was 1.96 µM. It also gave a TGI [23] of 4.68 µM, a GI50 [24] of 2.95 µM and a TGI [24] of 10.7 µM. It also gave a GI50 [25] of 3.16 µM, a TGI [25] of 10.1 µM and a GI50 [26] of 1.93 µM. It also gave a TGI [26] of 3.83 µM, a GI50 [27] of 2.43 µM and a TGI [27] of 5.62 µM. The GI50 [28] was 2.25 µM, the TGI [28] was 5.92 µM and the GI50 [30] was 3.89 µM. For the same molecule, the TGI [30] was 13.1 µM, the GI50 [31] was 2.27 µM and the TGI [31] was 6.34 µM. It also gave a GI50 [32] of 8.82 µM, a TGI [32] of 22.4 µM and a GI50 [33] of 10.6 µM. It also gave a TGI [33] of 24 µM, a GI50 [34] of 10.4 µM and a TGI [34] of 24.1 µM. It also gave a GI50 [35] of 5.64 µM, a TGI [35] of 18.7 µM and a GI50 [36] of 3.16 µM. For the same molecule, the TGI [36] was 12.3 µM, the GI50 [37] was 2.34 µM and the TGI [37] was 6.75 µM. The GI50 [38] was 2.38 µM, the TGI [38] was 5.28 µM and the GI50 [39] was 1.79 µM. The TGI [39] was 3.37 µM, the GI50 [40] was 2.96 µM and the TGI [40] was 10.2 µM. It also gave a GI50 [41] of 2.27 µM, a TGI [41] of 5.61 µM and a GI50 [42] of 1.95 µM. The TGI [42] was 4.14 µM, the GI50 [43] was 6.7 µM and the TGI [43] was 19.4 µM. For the same molecule, the GI50 [44] was 1.81 µM, the TGI [44] was 3.38 µM and the GI50 [45] was 1.85 µM. For the same molecule, the TGI [45] was 3.52 µM, the GI50 [46] was 10.7 µM and the TGI [46] was 23.9 µM. The GI50 [47] was 3.12 µM, the TGI [47] was 11.6 µM and the GI50 [48] was 3.95 µM. The TGI [48] was 14.6 µM, the GI50 [49] was 1.42 µM and the TGI [49] was 3.24 µM. It also gave a GI50 [50] of 1.79 µM, a TGI [50] of 3.64 µM and a GI50 [51] of 6.91 µM. The TGI [51] was 20.2 µM, the GI50 [52] was 4.34 µM and the TGI [52] was 20.3 µM. For the same molecule, the GI50 [53] was 4.54 µM, the TGI [53] was 15 µM and the GI50 [54] was 1.74 µM. For the same molecule, the TGI [54] was 3.2 µM, the GI50 [55] was 1.8 µM and the TGI [55] was 3.75 µM. It also gave a GI50 [56] of 3.02 µM, a TGI [56] of 11.2 µM and a GI50 [57] of 3.1 µM. The TGI [57] was 14.9 µM.
